From patent US20040010021A1, “Pharmaceutical compositions for the treatment of depression or symptoms suggesting depression” (priority 2000, published 2004)
Entries after “also recorded” stand apart in the source; their conditions may differ.

Tests used:
[1] = test system: patients; settings: cited from earlier work; for depression as adverse effect (literature): literature and Physicians' Desk Reference
[2] = test system: patients; settings: 4-week clinical study
Source text: This is followed by a four-week (week 0-4) H2-blocker therapy performed on the basis of the former randomization applying either Quamatel®- or Zantac®—therapy. During randomization they have also taken the female-male ratio into consideration.
(§1) The describing statistics (median, quartiles, average, dispersion, case-number, minimum and maximum values) were given for all numerical data variables (age, body weight, height, overall scores for HAMD and MADRS, as well as HAMA). […] The global parameters (the patient's opinion of the changes in the mood and the general condition, the physician's opinion of the general condition of the patient, and the psychiatrist's opinion of the changes in depression and anxiety) were assessed by applying the median-test (SAS NPAR1 WAY method).

[3] = test system: patients; test: Hamilton 24 (HAMD) depression scale, multicenter randomized controlled clinical study; assay type: in vivo, human; settings: conclusion from the 4-week clinical study, vs ranitidine-group and baseline
Source text: The number of cases investigated was 119, which assured that the obtained data reach the level of statistical significance. […] During the statistical evaluation a probability level of p≦0.05 was regarded as significant.
Multicenter, randomized, controlled study; the study can be regarded blind with respect to the psychiatrist's assessment of the results.
4-week treatment period with the administration of the test—or reference medication.
On the occasion of the 1st visit (week-1-0) the recording of the medical history, physical examination, endoscopy (optional), the signing of the consent form, then the assessment of the extent of anxiety during the psychiatric examination, by using the Hamilton 24 (HAMD) and the MADRS (Montgomery Asberg) depression scales as well as the Hamilton Anxiety Rating Scale (HAMA). […]
as §1

Structure (SMILES)	depression as adverse effect (literature) [1]	gastrointestinal efficacy compared with ranitidine [2]	efficacy in schizophrenia (literature case studies) ([1]; case studies)	antidepressant / depression-reducing effect, conclusion of the study [3]
CN/C(=N/CCSCc1nc[nH]c1C)NC#N [cimetidine]	marked depressant effect			
NC(N)=Nc1nc(CSCCC(N)=NS(N)(=O)=O)cs1 [famotidine]	depression as one of the adverse reactions	practically displaying the same gastrointestinal efficacy	effective in the management of schizophrenia	specific depression-reducing effect; also recorded: significantly detectable antidepressant effect
CNC(=C[N+](=O)[O-])NCCSCc1ccc(CN(C)C)o1 [ranitidine]	development of depression could be unquestionably associated with ranitidine-therapy			
